The record followed here is patent US11028041B2, “Second generation GRP94-selective inhibitors” (University of Kansas, priority 2017, dated 2021).

The target in one experiment is Hsp90α (Homo sapiens (Human), UniProt P07900). In words: Fluorescence polarization assay against Hsp90α. The class given is binding. To be noted: FITC-GDA tracer, 100 μM highest concentration tested, average of two independent experiments ± SEM, read-out: Apparent Kd Hsp90α. As for the experimental part: Fluorescence Polarization. The assay was performed in 96-well black, flat-bottom plates with a final volume of 100 μL. 25 μL of assay buffer (20 mM HEPES, pH 7.3, 50 mM KCl, 5 mM MgCl2, 20 mM Na2MoO4, 2 mM DTT, 0.1 mg/mL BGG, and 0.01% NP-40) were added, followed by 25 μL of assay buffer containing 6 nM FITC-GDA (fluorescent tracer, stock in DMSO, diluted in assay buffer) and 50 μL of assay buffer containing 10 nM of either Grp94 or Hsp90α were added to each well. For each plate, wells containing buffer only (background), tracer in buffer only (low polarization control) and protein, tracer, and 1% DMSO (final concentration, high polarization control) were included. Compounds were then added with a final concentration of DMSO=1%. Plates were incubated at 4° C. with rocking for 24 h. […] Polarization values were correlated to % tracer bound and compound concentrations.

Experiment [1] has as its system MDA-MB-231 cells. The experiment can be described thus: Anti-proliferation MTS/PMS assay, MDA-MB-231. Type of experiment: cell-based. The conditions noted are these: Homo sapiens, 72 h, average of two independent experiments ± SEM. As for the experimental part: (§1) Compounds or vehicle were administered in DMSO (1% DMSO final concentration) and the plates were placed back in the incubator. After 72 h, the % viable cells were determined using the MTS/PMS cell proliferation kit (Promega) per the manufacturer's instructions. Cells treated with vehicle were normalized to 100% viable and compound treated wells were adjusted accordingly.

Experiment [2] concerns PC3-MM2 cells. The experiment can be described thus: Anti-proliferation MTS/PMS assay, PC3-MM2. The class given is cell-based. To be noted: Homo sapiens, PC3MM2, 72 h, average of two independent experiments ± SEM. As for the experimental part: as §1
Experiment [3] concerns SK-MEL-28 cells. In words: Anti-proliferation MTS/PMS assay, SK-MEL-28. Type of experiment: cell-based. The conditions noted are these: Homo sapiens, 72 h, average of two independent experiments ± SEM. As to the method: as §1
The subject of experiment [4] is A549 cells. In words: Anti-proliferation MTS/PMS assay, A549. The class given is cell-based. To be noted: Homo sapiens, 72 h, average of two independent experiments ± SEM. As to the method: as §1
In experiment [5] the test system is MDA-MB-231 cells. The conditions noted are these: 500 nM, after 24 h. As to the method: (§2) Wound Healing Scratch Assay. Cells were counted via Trypan blue exclusion and seeded in 12-well plates at 200,000 cells/mL/well and returned to the incubator for 24 h. Scratches were made with a 0.1-10 μL pipette tip, then cells were washed with PBS and fresh media was added. […] Plates were returned to the incubator until 24 h pictures were taken. Images were processed and % migration determined via ImageJ. All experiments were performed in quadruplicate.

Experiment [6] has as its system PC3-MM2 cells. To be noted: 500 nM, after 24 h. As for the experimental part: as §2
Experiment [7] concerns SK-MEL-28 cells. The experiment can be described thus: Wound healing scratch assay, SK-MEL-28. To be noted: after 24 h. Type of experiment: cell-based. As to the method:
(§3) Cell Culture. […] Wound Healing Scratch Assay. […] Images were processed and % migration determined via ImageJ. All experiments were performed in quadruplicate.

Experiment [8] concerns A549 cells. The experiment can be described thus: Wound healing scratch assay, A549. The conditions noted are these: 500 nM, 24 h. The class given is cell-based. As for the experimental part:
as §3

The test system of the next experiment is Akt. The experiment can be described thus: Western blot analysis, cytosolic Hsp90-dependent client protein Akt. Type of experiment: cell-based. To be noted: MDA-MB-231, PC3-MM2, SK-MEL-28, A549; 24 h; geldanamycin at 0.5 μM. On the technique in general: In western blotting, separated proteins are transferred to a membrane and probed.
For another experiment, the system named is Hsp70. The experiment can be described thus: Western blot analysis, Hsp70 induction. Type of experiment: cell-based. To be noted: MDA-MB-231, PC3-MM2, SK-MEL-28, A549; 24 h; geldanamycin at 0.5 μM.

Procedure for Akt: (§4) Western Blot Analysis. […] Cells were harvested in cold PBS and lysed using MPER (Thermo Scientific) supplemented with protease inhibitors (Roche) according the manufacturer's instructions. Cell lysates were obtained by centrifugation at 15,000 rpm for 10 min at 4° C. Protein concentrations were determined using the Pierce BCA assay kit following the manufacturer's instructions. Equal amounts of protein were separated via gel electrophoresis under reducing conditions (10% acrylamide gels) then transferred to PVDF membranes and immunoblotted with the corresponding primary antibodies. Membranes were then incubated with the correct HRP-labeled secondary antibody, developed with a chemiluminescent substrate, and visualized.
Procedure for Hsp70: as §4

Turning to `COC(=O)c1c(O)cc(O)c(Cl)c1CCc1ccccc1Cc1ccccc1` [Compound 6, methyl 2-(2-benzylphenethyl)-3-chloro-4,6-dihydroxybenzoate], the Kd on Hsp90α is 20.7 ± 0.5 µM.

For the compound `COC(=O)c1c(O)cc(O)c(Cl)c1CCc1cccc(Cc2ccccc2)c1` [Compound 7, methyl 2-(3-benzylphenethyl)-3-chloro-4,6-dihydroxybenzoate], at Hsp90α, the Kd is > 100 µM.

On to `COC(=O)c1c(O)cc(O)c(Cl)c1CCc1cc(OC)ccc1Cc1ccccc1` [Compound 16, methyl 2-(2-benzyl-5-methoxyphenethyl)-3-chloro-4,6-dihydroxybenzoate], for which the Kd at Hsp90α was 2.2 ± 0.2 µM.

In the case of `COC(=O)c1c(O)cc(O)c(Cl)c1CCc1ccc(OC)cc1Cc1ccccc1` [Compound 17, methyl 2-(2-benzyl-4-methoxyphenethyl)-3-chloro-4,6-dihydroxybenzoate], the Kd at Hsp90α stood at 2.6 ± 0.6 µM.

For `COC(=O)c1c(O)cc(O)c(Cl)c1CCc1cccc(OC)c1Cc1ccccc1` [Compound 18, methyl 2-(2-benzyl-3-methoxyphenethyl)-3-chloro-4,6-dihydroxybenzoate], the Kd at Hsp90α was determined as 13.7 ± 1.4 µM.

On to `COC(=O)c1c(O)cc(O)c(Cl)c1CCc1cc(N)ccc1Cc1ccccc1` [Compound 19, methyl 2-(5-amino-2-benzylphenethyl)-3-chloro-4,6-dihydroxybenzoate], for which the Kd at Hsp90α is 1 ± 0.1 µM.

For `COC(=O)c1c(O)cc(O)c(Cl)c1CCc1ccc(N)cc1Cc1ccccc1` [Compound 20, methyl 2-(4-amino-2-benzylphenethyl)-3-chloro-4,6-dihydroxybenzoate], the Kd on Hsp90α turned out to be 0.34 ± 0.07 µM.

`COC(=O)c1c(O)cc(O)c(Cl)c1CCc1cc(O)ccc1Cc1ccccc1` [Compound 22, methyl 2-(2-benzyl-5-hydroxyphenethyl)-3-chloro-4,6-dihydroxybenzoate]: the Kd on Hsp90α stood at 2.1 ± 0.1 µM.

`COC(=O)c1c(O)cc(O)c(Cl)c1CCc1ccc(O)cc1Cc1ccccc1` [Compound 23, methyl 2-(2-benzyl-4-hydroxyphenethyl)-3-chloro-4,6-dihydroxybenzoate]: the Kd at Hsp90α was determined as 0.92 ± 0.03 µM.

Consider `COC(=O)c1c(O)cc(O)c(Cl)c1CCc1cccc(O)c1Cc1ccccc1` [Compound 24, methyl 2-(2-benzyl-3-hydroxyphenethyl)-3-chloro-4,6-dihydroxybenzoate], for which the Kd at Hsp90α amounted to 2 ± 0.2 µM.

In the case of `CCOc1ccccc1Cc1ccccc1CCc1c(Cl)c(O)cc(O)c1C(=O)OC` [Compound 25, methyl 3-chloro-2-(2-(2-ethoxybenzyl)phenethyl)-4,6-dihydroxybenzoate], the Kd at Hsp90α was > 100 µM.

On to `COC(=O)c1c(O)cc(O)c(Cl)c1CCc1ccccc1Cc1ccccc1OC` [Compound 26, methyl 3-chloro-4,6-dihydroxy-2-(2-(2-methoxybenzyl)phenethyl)benzoate], for which the Kd at Hsp90α is > 100 µM.

As for `COC(=O)c1c(O)cc(O)c(Cl)c1CCc1ccccc1Cc1ccccc1Cl` [Compound 27, methyl 3-chloro-2-(2-(2-chlorobenzyl)phenethyl)-4,6-dihydroxybenzoate], on Hsp90α, the Kd is > 100 µM.

Turning to `COC(=O)c1c(O)cc(O)c(Cl)c1CCc1ccccc1Cc1cccc(Cl)c1` [Compound 28, methyl 3-chloro-2-(2-(3-chlorobenzyl)phenethyl)-4,6-dihydroxybenzoate], on Hsp90α, the Kd was 44.6 ± 2 µM.

On to `COC(=O)c1c(O)cc(O)c(Cl)c1CCc1ccccc1Cc1ccc(Cl)cc1` [Compound 29, methyl 3-chloro-2-(2-(4-chlorobenzyl)phenethyl)-4,6-dihydroxybenzoate], for which, on Hsp90α, the Kd is > 100 µM.

For the compound `COC(=O)c1c(O)cc(O)c(Cl)c1CCc1ccccc1Cc1ccc(F)cc1` [Compound 30, methyl 3-chloro-2-(2-(4-fluorobenzyl)phenethyl)-4,6-dihydroxybenzoate], the GI50 was 22.4 ± 1.9 µM in the experiment on MDA-MB-231 cells [1], 18.3 ± 2.3 µM in the experiment with PC3-MM2 cells [2], 16.6 ± 1.2 µM in the experiment with SK-MEL-28 cells [3] and 16.7 ± 1.2 µM in the experiment with A549 cells [4]. The “% migration” value in the experiment with MDA-MB-231 cells [5] and in the experiment on PC3-MM2 cells [6] was 38-40% in each case. For the same compound, the effect on migration entry in the experiment with SK-MEL-28 cells [7] is reported as “demonstrated a susceptibility to Grp94 inhibition”. In addition, the anti-migratory effect result with A549 cells [8] is recorded as “demonstrated an anti-migratory effect”. Besides, the “degradation of Akt” value with Akt is reported as “did not induce the degradation of Akt”. Also, in the experiment on Hsp70, the “induction of Hsp70” value is “nor did it result in the induction of Hsp70”.

Regarding `COC1=C2C[C@@H](C)C[C@H](OC)[C@H](O)[C@@H](C)/C=C(\C)[C@H](OC(N)=O)[C@@H](OC)/C=C\C=C(/C)C(=O)NC(=CC1=O)C2=O` [geldanamycin, reference compound], the “degradation of Akt” value in the experiment with Akt is “induced the degradation of Akt”. The “induction of Hsp70” value in the experiment on Hsp70 is “increased the levels of Hsp70”.

The term GI50 denotes the concentration that inhibits growth by half.
